Tested on: 777334-354-R2-J4-PDC tumor spheroids with HUVEC/MSC, viability
Assay: Anticancer human tumor 777334-354-R2-J4-PDC patient-derived pancreatic adenocarcinoma cell line growth inhibition [GQUAD]
Details: for IC50: curve of first compound; for viability, T/C: stronger effect = lower value
Method in brief: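 Viability of tumor cells grown as complex spheroids with endothelial and stromal cells, exposed to drug combinations. Top concentration at or near clinical Cmax (else 10 microM), diluted in half-log increments.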

[1] = second compound 0.0316 µM, first compound 0.0316 µM
[2] = second compound 0.0316 µM, first compound 0.1 µM
[3] = second compound 0.0316 µM, first compound 0.316 µM
[4] = second compound 0.0316 µM, first compound 1 µM
[5] = second compound 0.0316 µM, first compound 3.16 µM
[6] = second compound 0.0316 µM, first compound 10 µM
[7] = second compound 0.1 µM, first compound 0.0316 µM
[8] = second compound 0.1 µM, first compound 0.1 µM
[9] = second compound 0.1 µM, first compound 0.316 µM
[10] = second compound 0.1 µM, first compound 1 µM
[11] = second compound 0.1 µM, first compound 3.16 µM
[12] = second compound 0.1 µM, first compound 10 µM
[13] = second compound 0.316 µM, first compound 0.0316 µM
[14] = second compound 0.316 µM, first compound 0.1 µM
[15] = second compound 0.316 µM, first compound 0.316 µM
[16] = second compound 0.316 µM, first compound 1 µM
[17] = second compound 0.316 µM, first compound 3.16 µM
[18] = second compound 0.316 µM, first compound 10 µM
[19] = second compound 1 µM, first compound 0.0316 µM
[20] = second compound 1 µM, first compound 0.1 µM
[21] = second compound 1 µM, first compound 0.316 µM
[22] = second compound 1 µM, first compound 1 µM
[23] = second compound 1 µM, first compound 3.16 µM
[24] = second compound 1 µM, first compound 10 µM
[25] = second compound 3.16 µM, first compound 0.0316 µM
[26] = second compound 3.16 µM, first compound 0.1 µM
[27] = second compound 3.16 µM, first compound 0.316 µM
[28] = second compound 3.16 µM, first compound 1 µM
[29] = second compound 3.16 µM, first compound 3.16 µM
[30] = second compound 3.16 µM, first compound 10 µM
[31] = second compound 10 µM, first compound 0.0316 µM
[32] = second compound 10 µM, first compound 0.1 µM
[33] = second compound 10 µM, first compound 0.316 µM
[34] = second compound 10 µM, first compound 1 µM
[35] = second compound 10 µM, first compound 3.16 µM
[36] = second compound 10 µM, first compound 10 µM
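Also: spheroids exposed to compounds for 7 days before readout.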

COc1cc(C2c3cc4c(cc3C(OC3OC5COC(C)OC5C(O)C3O)C3COC(=O)C23)OCO4)cc(OC)c1O (stereo unspecified) + Cc1cnc(CNC(=O)c2c(=O)c3ccc(N4CCCN(C)CC4)nc3n3c2sc2ccccc23)cn1
IC50 (second compound 0.0316 µM): 6180 nM
IC50 (second compound 0.1 µM): 4440 nM
IC50 (second compound 0.316 µM): 3710 nM
IC50 (second compound 1 µM): 5140 nM
IC50 (second compound 3.16 µM): 2490 nM
IC50 (second compound 10 µM): 2910 nM
viability, T/C [1]: 94.8%
viability, T/C [2]: 90.6%
viability, T/C [3]: 85.2%
viability, T/C [4]: 70.9%
viability, T/C [5]: 54.7%
viability, T/C [6]: 46.6%
viability, T/C [7]: 84.6%
viability, T/C [8]: 78.5%
viability, T/C [9]: 79.6%
viability, T/C [10]: 73.4%
viability, T/C [11]: 56.1%
viability, T/C [12]: 34.9%
viability, T/C [13]: 79.3%
viability, T/C [14]: 85%
viability, T/C [15]: 77%
viability, T/C [16]: 72.7%
viability, T/C [17]: 51.4%
viability, T/C [18]: 39.7%
viability, T/C [19]: 68.4%
viability, T/C [20]: 75.2%
viability, T/C [21]: 76.1%
viability, T/C [22]: 64%
viability, T/C [23]: 60%
viability, T/C [24]: 37.5%
viability, T/C [25]: 57.1%
viability, T/C [26]: 64.5%
viability, T/C [27]: 61.6%
viability, T/C [28]: 61.1%
viability, T/C [29]: 47.1%
viability, T/C [30]: 40.7%
viability, T/C [31]: 58.6%
viability, T/C [32]: 57.3%
viability, T/C [33]: 55.2%
viability, T/C [34]: 52%
viability, T/C [35]: 51.5%
viability, T/C [36]: 34.7%

CC[C@@]1(O)C(=O)OCc2c1cc1n(c2=O)Cc2cc3c(CN(C)C)c(O)ccc3nc2-1 + Cc1cnc(CNC(=O)c2c(=O)c3ccc(N4CCCN(C)CC4)nc3n3c2sc2ccccc23)cn1
IC50 (second compound 0.0316 µM): 172 nM
IC50 (second compound 0.1 µM): 241 nM
IC50 (second compound 0.316 µM): 222 nM
IC50 (second compound 1 µM): 233 nM
IC50 (second compound 3.16 µM): 225 nM
IC50 (second compound 10 µM): 78.7 nM
viability, T/C (second compound 0.0316 µM, first compound 0.000999 µM): 90.1%
viability, T/C (second compound 0.0316 µM, first compound 0.00316 µM): 79.8%
viability, T/C (second compound 0.0316 µM, first compound 0.00999 µM): 95.2%
viability, T/C [1]: 80.7%
viability, T/C (second compound 0.0316 µM, first compound 0.0999 µM): 59.4%
viability, T/C [3]: 39.7%
viability, T/C (second compound 0.1 µM, first compound 0.000999 µM): 102%
viability, T/C (second compound 0.1 µM, first compound 0.00316 µM): 74.7%
viability, T/C (second compound 0.1 µM, first compound 0.00999 µM): 83.1%
viability, T/C [7]: 66.8%
viability, T/C (second compound 0.1 µM, first compound 0.0999 µM): 60.8%
viability, T/C [9]: 45%
viability, T/C (second compound 0.316 µM, first compound 0.000999 µM): 73.8%
viability, T/C (second compound 0.316 µM, first compound 0.00316 µM): 76.3%
viability, T/C (second compound 0.316 µM, first compound 0.00999 µM): 76.7%
viability, T/C [13]: 70.1%
viability, T/C (second compound 0.316 µM, first compound 0.0999 µM): 59.3%
viability, T/C [15]: 46%
viability, T/C (second compound 1 µM, first compound 0.000999 µM): 64.7%
viability, T/C (second compound 1 µM, first compound 0.00316 µM): 74.8%
viability, T/C (second compound 1 µM, first compound 0.00999 µM): 76%
viability, T/C [19]: 69.5%
viability, T/C (second compound 1 µM, first compound 0.0999 µM): 57%
viability, T/C [21]: 47%
viability, T/C (second compound 3.16 µM, first compound 0.000999 µM): 56.8%
viability, T/C (second compound 3.16 µM, first compound 0.00316 µM): 67.7%
viability, T/C (second compound 3.16 µM, first compound 0.00999 µM): 62.2%
viability, T/C [25]: 63.3%
viability, T/C (second compound 3.16 µM, first compound 0.0999 µM): 54.9%
viability, T/C [27]: 47.4%
viability, T/C (second compound 10 µM, first compound 0.000999 µM): 56.1%
viability, T/C (second compound 10 µM, first compound 0.00316 µM): 57.9%
viability, T/C (second compound 10 µM, first compound 0.00999 µM): 60.2%
viability, T/C [31]: 53.2%
viability, T/C (second compound 10 µM, first compound 0.0999 µM): 47.8%
viability, T/C [33]: 38.9%

O=C(c1cc(Cc2n[nH]c(=O)c3ccccc23)ccc1F)N1CCN(C(=O)C2CC2)CC1 + CN(C)c1ccc(Nc2c3ccc(NC(=O)CCN4CCCC4)cc3nc3cc(NC(=O)CCN4CCCC4)ccc23)cc1
IC50 (second compound 0.0316 µM): > 10000 nM
IC50 (second compound 0.1 µM): > 10000 nM
IC50 (second compound 0.316 µM): > 10000 nM
IC50 (second compound 1 µM): > 10000 nM
IC50 (second compound 3.16 µM): > 10000 nM
IC50 (second compound 10 µM): > 10000 nM
viability, T/C [1]: 97.1%
viability, T/C [2]: 104%
viability, T/C [3]: 104%
viability, T/C [4]: 86%
viability, T/C [5]: 84%
viability, T/C [6]: 74.3%
viability, T/C [7]: 88%
viability, T/C [8]: 82.6%
viability, T/C [9]: 93.5%
viability, T/C [10]: 92.1%
viability, T/C [11]: 88.5%
viability, T/C [12]: 72.5%
viability, T/C [13]: 80.6%
viability, T/C [14]: 94.9%
viability, T/C [15]: 97.2%
viability, T/C [16]: 81%
viability, T/C [17]: 94.1%
viability, T/C [18]: 66.7%
viability, T/C [19]: 84.9%
viability, T/C [20]: 89.8%
viability, T/C [21]: 86.7%
viability, T/C [22]: 86.2%
viability, T/C [23]: 80.4%
viability, T/C [24]: 65.4%
viability, T/C [25]: 79.7%
viability, T/C [26]: 81.7%
viability, T/C [27]: 68.3%
viability, T/C [28]: 76.2%
viability, T/C [29]: 82.6%
viability, T/C [30]: 69.1%
viability, T/C [31]: 64.7%
viability, T/C [32]: 76.7%
viability, T/C [33]: 76.4%
viability, T/C [34]: 81%
viability, T/C [35]: 71%
viability, T/C [36]: 66.9%

Reference: PubChem BioAssay AID2060499 (Molecular Pharmacology Branch, DTP, NCI, 2025)
